Tested on: B16-F10 melanoma cells
Test: Melanin formation inhibition (without UV stress) in B16-F10 melanoma cells
Format: cell-based
Method: Experiments were conducted to evaluate suppression of melanin synthesis using B16 melanoma cells by Portulaca Extract, ASG and Portulaca/ASG blend with and without UV stress at different levels. These experiments were performed to quantify skin whitening effects of the blend versus the individual components of the blend. Test (I)—Melanin Formation Inhibition (without UV Stress) Two sets of B16-F10 melanoma cells (ATCC 6475) were seeded at 6 well multi-plates with 1×10^5 density and cultured in Culbecco's Modified Eagle's Medium (DMEM) supplemented 10% fetal bovine serum (FBS) at 37° C. for 24 hours. The medium was exchanged with fresh DMEM media containing 10% FBS and test samples were added and cultured for 72 hours at 37° C. One set of cultured cells was washed with 2 ml of PBS (phosphate buffered saline) and cells were dissolved by 250 ul of 1N NaOH and melanin content was measured by UV absorbance at 450 nm. The other set of cells was incubated after adding 200 ul of MTT (2.5 mg/ml) at 37° C. for 4 hours. Culture medium was discarded and cells were dissolved for 10 minutes at room temperature by adding 2 ml of DMSO. After the cells were completely dissolved, UV absorbance was measured at 570 nm. […] [table]

O=C1O[C@H]([C@H](O)CO)C(O)=C1O[C@H]1O[C@H](CO)[C@@H](O)[C@H](O)[C@H]1O [ASG, 2-0-α-D-glucopyranosyl-L-ascorbic acid]
melanin formation inhibition (1.2% of ASG, 72 hours, FIGS. 1 and 2): about 20% | melanin formation inhibition (result in words) (B16-F10 cells, concentration series of Table 2): melanin formation inhibition in a dose dependent manner

Source: US20120189564A1, “COMPOSITIONS OF VITAMIN C DERIVATIVE AND PORTULACA EXTRACT” (PRESPERSE CORPORATION, priority 2011, published 2012)
